For seven compounds, EC50, IC50 and AC50 results are on record in ChEMBL document CHEMBL1201862, “PubChem BioAssay data set” (2004).

Activity calls are given as the source filed them. Some results are limits rather than exact numbers.

Experiment [1] deals with T1, Heat shock factor protein 1 (Mus musculus, UniProt P38532).
T1 sequence (P38532 whole entry): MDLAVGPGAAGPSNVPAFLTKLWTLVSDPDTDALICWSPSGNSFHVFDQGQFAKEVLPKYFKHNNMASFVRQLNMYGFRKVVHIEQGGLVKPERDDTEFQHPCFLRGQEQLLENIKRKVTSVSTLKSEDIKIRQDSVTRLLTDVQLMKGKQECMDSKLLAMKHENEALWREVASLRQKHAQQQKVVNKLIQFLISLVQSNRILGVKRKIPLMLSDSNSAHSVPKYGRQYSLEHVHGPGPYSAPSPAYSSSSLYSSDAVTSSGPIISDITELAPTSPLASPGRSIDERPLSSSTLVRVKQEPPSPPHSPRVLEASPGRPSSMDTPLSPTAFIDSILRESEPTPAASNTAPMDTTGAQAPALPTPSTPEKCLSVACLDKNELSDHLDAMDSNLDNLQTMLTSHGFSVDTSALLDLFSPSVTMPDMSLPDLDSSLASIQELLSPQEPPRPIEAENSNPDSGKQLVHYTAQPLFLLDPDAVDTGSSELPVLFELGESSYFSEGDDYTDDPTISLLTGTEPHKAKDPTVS
Kind of experiment: inhibition of MG132-induced HSE-luciferase signal, confirmation, cell-based, NIH3T3, luminescence, dose retest (AID 2382).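 Further: NIH3T3 fibroblasts with HSF1-driven luciferase reporter stressed by proteasome inhibitor MG132; luminescence from HSF1-driven luciferase expression after 8 hours of MG132 stress.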 In kind it is functional.

Experiment [2] addresses Arf-GAP with SH3 domain, ANK repeat and PH domain-containing protein 1 (Homo sapiens, UniProt Q9ULH1). In kind it is functional.
The target of a further experiment is Beta-galactosidase (Escherichia coli, UniProt Q8VNN2). The experiment in a line: Dose response counterscreen for EBI2 assay utilizing the enzyme, b-galactosidase. The experiment is classed as functional. For orientation: The purpose of a counterscreen is to sort out artefacts and off-target activity.
Experiment [3] has as its target T2, Replicative DNA helicase DnaB (Mycobacterium tuberculosis, UniProt P9WMR3).
T2 sequence (P9WMR3 whole entry): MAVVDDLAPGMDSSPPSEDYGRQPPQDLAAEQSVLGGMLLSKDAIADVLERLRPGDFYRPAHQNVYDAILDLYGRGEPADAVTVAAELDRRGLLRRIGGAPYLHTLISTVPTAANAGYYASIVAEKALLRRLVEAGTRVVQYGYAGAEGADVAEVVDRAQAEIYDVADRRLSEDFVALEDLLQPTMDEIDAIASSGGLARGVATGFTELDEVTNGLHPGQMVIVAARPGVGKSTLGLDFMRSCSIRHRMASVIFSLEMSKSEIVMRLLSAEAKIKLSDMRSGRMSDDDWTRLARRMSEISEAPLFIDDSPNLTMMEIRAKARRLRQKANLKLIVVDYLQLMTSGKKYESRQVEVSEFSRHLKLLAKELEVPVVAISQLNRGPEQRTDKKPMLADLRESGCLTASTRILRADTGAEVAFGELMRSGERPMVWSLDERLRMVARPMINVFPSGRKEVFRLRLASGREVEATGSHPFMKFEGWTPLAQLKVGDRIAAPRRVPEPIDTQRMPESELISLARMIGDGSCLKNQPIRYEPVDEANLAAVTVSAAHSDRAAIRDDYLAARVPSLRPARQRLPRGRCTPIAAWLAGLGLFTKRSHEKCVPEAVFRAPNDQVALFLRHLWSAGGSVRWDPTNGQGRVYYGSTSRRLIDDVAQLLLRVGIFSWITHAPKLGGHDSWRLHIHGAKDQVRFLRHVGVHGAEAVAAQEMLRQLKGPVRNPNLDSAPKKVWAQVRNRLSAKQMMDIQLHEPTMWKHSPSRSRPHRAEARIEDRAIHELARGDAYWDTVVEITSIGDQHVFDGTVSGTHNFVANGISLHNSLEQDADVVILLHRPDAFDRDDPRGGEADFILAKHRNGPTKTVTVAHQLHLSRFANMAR
Kind of experiment: DnaB intein splicing inhibitors, dose response, biochemical, cell-free fluorescence (AID 449749). The experiment is classed as functional.

The target of another experiment is T3, Protein RecA (Mycobacterium tuberculosis, UniProt P9WHJ3).
T3 sequence (P9WHJ3 whole entry): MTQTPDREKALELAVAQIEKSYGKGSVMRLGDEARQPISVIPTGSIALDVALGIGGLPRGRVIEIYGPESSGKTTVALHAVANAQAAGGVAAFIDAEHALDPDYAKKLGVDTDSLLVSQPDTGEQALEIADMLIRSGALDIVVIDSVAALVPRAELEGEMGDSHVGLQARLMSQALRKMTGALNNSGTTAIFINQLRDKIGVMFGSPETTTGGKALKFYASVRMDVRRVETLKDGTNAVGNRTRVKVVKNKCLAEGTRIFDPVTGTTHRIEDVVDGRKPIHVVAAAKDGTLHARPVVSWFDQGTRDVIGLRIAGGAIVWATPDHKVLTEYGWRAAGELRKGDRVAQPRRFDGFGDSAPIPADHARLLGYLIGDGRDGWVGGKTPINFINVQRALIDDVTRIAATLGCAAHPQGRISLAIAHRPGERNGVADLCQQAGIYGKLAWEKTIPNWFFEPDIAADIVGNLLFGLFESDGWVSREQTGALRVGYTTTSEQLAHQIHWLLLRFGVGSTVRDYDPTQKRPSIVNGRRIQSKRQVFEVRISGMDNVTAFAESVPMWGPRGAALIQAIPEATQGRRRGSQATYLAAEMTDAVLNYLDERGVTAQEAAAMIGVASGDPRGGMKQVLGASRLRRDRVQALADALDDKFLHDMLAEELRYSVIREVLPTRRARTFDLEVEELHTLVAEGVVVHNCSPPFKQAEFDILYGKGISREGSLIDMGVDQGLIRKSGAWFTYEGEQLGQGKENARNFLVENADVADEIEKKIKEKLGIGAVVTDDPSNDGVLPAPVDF
Kind of experiment: Fluorescence Cell-Free Homogeneous Dose Retest to Identify Inhibitors of RecA-Intein Splicing Activity. [Related pubchem assays (depositor defined):AID2097, AID2223, AID489010, AID492950]. In kind it is functional.

For a further experiment, the target named is Galanin receptor type 3 (Homo sapiens, UniProt O60755). Kind of experiment: Fluorescence-based cell-based primary high throughput dose response assay to identify antagonists of the Galanin Receptor 3 (GalR3). The experiment is classed as functional.
Experiment [4] can be described thus: cells. The following applies: HEK-CNG. The experiment is classed as functional, cell-based.
Experiment [5] in a line: Shn3 3'UTR reporter inhibitors, dose response, cell-based, Clone20 osteoblasts, firefly luciferase, cherry-picked (AID 624132).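 Further: firefly luciferase luminescence from reporter carrying the Shn3 3'UTR in osteoblasts.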 In kind it is functional.
A short description of experiment [6]: HepG2 cell cytotoxicity, dose response, cytotoxicity control for Shn3 inhibitor project, CellTiter-Glo, cherry-picked (AID 624134). The experiment is classed as functional, cell-based. (In general: Cellular ATP, detected with luciferase, serves as a proxy for viable cell number.)
Experiment [7] in a line: control 3'UTR Renilla luciferase suppression, dose response, counter-screen for Shn3 inhibitor project, cell-based, Clone20-Shn3RL, cherry-picked (AID 624133). The experiment is classed as functional.
The nature of experiment [8]: reduction of Shn3 3'UTR firefly luciferase signal, dose response, Schnurri-3 inhibitor project, cell-based, Clone20 osteoblasts, cherry-pick, set 2 (AID 720490).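 Further: actives lower the luminescence signal as inhibitors.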 The experiment is classed as functional.
The nature of experiment [9]: inhibitors of control Renilla luciferase reporter, dose response, counter-screen for Shn3 3'UTR targeting project, Clone20-Shn3RL cells, dual-Glo, cherry-pick, set 2 (AID 720724). In kind it is functional, cell-based. The following applies: Dual-Go Shn3RL. (Reporter assays use an easily measured gene product as a stand-in for the process of interest.)
Experiment [10] deals with Delta-type opioid receptor (Homo sapiens, UniProt P41143). The experiment in a line: Counterscreen for agonists of heterodimerization of the mu 1 (OPRM1) and delta 1 (OPRD1) opioid receptors: Luminescence-based cell-based high throughput dose response assay to identify agonists of OPRD1 homodimerization. [Related pubchem assays (depositor defined):AID504326, AID504355, AID504692, AID504904, AID504905]. In kind it is functional.

The target in a further experiment is Mu-type opioid receptor (Homo sapiens, UniProt P35372). Kind of experiment: Counterscreen for agonists of heterodimerization of the mu 1 (OPRM1) and delta 1 (OPRD1) opioid receptors: Luminescence-based cell-based high throughput dose response assay to identify agonists of OPRM1 homodimerization. In kind it is functional.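 Further: U2OS cells expressing OPRM1 and beta-arrestin as split beta-galactosidase partners.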
For experiment [11], the target named is 5-hydroxytryptamine receptor 5A (Homo sapiens, UniProt P47898). Kind of experiment: Counterscreen for agonists of OPRM1-OPRD1 heterodimerization: luminescence-based cell-based high throughput dose response assay to identify agonists of 5-hydroxytryptamine (serotonin) 5A receptor (HTR5A). [Related pubchem assays (depositor defined):AID504326, AID504355, AID504692, AID504904, AID504905]. The experiment is classed as functional.

Experiment [12] addresses SWI/SNF-related matrix-associated actin-dependent regulator of chromatin subfamily A member 2 (Homo sapiens, UniProt P51531). The experiment in a line: Luminescence-based cell-based high throughput dose response assay to identify activators of the function of SWI/SNF related, matrix associated, actin dependent regulator of chromatin, subfamily a, member 2 (SMARCA2, BRM). In kind it is functional.

Experiment [13] can be described thus: Counterscreen for activators of the function of SWI/SNF related, matrix associated, actin dependent regulator of chromatin, subfamily a, member 2 (SMARCA2, BRM): Luminescence-based cell-based high throughput dose response assay to identify non-selective compounds using the VP16 reporter assay. The experiment is classed as functional.
Experiment [14] can be described thus: cells. In kind it is functional, cell-based.
In experiment [15] the target is T4, Trace amine-associated receptor 1 (Homo sapiens, UniProt Q96RJ0).
T4 sequence (Q96RJ0 whole entry): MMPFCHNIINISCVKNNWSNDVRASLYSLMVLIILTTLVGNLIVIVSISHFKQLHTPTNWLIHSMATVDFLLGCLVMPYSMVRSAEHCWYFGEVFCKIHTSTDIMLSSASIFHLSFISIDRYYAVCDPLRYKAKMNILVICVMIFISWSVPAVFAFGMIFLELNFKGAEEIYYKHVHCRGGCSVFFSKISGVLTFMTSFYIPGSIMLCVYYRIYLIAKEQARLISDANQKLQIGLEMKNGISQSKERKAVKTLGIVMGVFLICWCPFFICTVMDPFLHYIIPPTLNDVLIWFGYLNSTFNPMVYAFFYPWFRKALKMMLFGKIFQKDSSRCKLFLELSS
The experiment in a line: Fluorescence-based cell-based high throughput dose response assay to identify agonists of the human trace amine associated receptor 1 (TAAR1). The experiment is classed as functional.

Experiment [16] addresses T4, Trace amine-associated receptor 1. The experiment in a line: Counterscreen for agonists of the human trace amine associated receptor 1 (hTAAR1): Fluorescence-based cell-based high throughput dose response assay to identify hTAAR1 agonist that also desensitize TAAR1 receptor response. In kind it is functional.
The nature of experiment [17]: cells. The experiment is classed as functional, cell-based. The source holds these as a separate data set.
Experiment [18] concerns the target Potassium channel subfamily K member 9 (Homo sapiens, UniProt Q9NPC2). The experiment in a line: TASK3 (KCNK9) channel inhibitors, thallium flux, SAR follow-up, selectivity assay for TASK1 inhibitor project, cell-based, FluxOR thallium flux, concentration-response (AID 652211).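 Further: potency is for inhibitors of the channel.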 In kind it is functional.

Chain of Beta-galactosidase (Q8VNN2 whole entry): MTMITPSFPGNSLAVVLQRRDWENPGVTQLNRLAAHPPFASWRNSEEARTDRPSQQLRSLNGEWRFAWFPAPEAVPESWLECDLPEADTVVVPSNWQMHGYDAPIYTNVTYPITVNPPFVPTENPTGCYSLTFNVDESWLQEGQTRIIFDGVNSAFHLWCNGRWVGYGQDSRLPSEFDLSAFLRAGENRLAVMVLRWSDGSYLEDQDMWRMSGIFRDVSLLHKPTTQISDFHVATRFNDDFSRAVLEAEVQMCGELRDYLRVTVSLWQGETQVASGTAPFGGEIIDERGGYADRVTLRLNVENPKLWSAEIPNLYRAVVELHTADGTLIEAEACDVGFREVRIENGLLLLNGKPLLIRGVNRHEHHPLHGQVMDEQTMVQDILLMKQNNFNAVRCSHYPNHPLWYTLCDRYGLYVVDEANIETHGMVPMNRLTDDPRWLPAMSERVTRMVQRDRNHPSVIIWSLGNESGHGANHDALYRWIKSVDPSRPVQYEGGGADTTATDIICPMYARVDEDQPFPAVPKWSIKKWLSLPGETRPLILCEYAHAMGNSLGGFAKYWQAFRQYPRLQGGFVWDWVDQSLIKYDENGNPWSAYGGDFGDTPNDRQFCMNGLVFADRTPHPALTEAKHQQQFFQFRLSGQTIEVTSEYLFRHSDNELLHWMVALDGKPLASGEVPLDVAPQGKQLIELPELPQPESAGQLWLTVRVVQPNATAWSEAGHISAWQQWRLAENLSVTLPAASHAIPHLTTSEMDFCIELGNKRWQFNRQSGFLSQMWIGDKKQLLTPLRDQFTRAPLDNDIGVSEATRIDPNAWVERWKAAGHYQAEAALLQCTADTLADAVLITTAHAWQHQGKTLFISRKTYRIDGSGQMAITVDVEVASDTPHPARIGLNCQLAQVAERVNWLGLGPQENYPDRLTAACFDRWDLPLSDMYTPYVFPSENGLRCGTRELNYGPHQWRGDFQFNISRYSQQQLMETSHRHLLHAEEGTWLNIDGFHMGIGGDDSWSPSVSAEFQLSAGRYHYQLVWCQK
Chain of Galanin receptor type 3 (O60755 whole entry): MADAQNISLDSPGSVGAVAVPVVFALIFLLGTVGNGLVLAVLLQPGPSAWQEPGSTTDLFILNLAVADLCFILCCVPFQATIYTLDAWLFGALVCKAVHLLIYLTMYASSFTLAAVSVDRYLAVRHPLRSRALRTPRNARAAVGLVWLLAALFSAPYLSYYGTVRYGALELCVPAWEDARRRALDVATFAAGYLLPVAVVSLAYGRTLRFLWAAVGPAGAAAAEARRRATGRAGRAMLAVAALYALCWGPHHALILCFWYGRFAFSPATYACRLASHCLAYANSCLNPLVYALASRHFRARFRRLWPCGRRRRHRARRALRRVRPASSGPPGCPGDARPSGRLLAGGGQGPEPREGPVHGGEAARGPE
Chain of Mu-type opioid receptor (P35372 whole entry): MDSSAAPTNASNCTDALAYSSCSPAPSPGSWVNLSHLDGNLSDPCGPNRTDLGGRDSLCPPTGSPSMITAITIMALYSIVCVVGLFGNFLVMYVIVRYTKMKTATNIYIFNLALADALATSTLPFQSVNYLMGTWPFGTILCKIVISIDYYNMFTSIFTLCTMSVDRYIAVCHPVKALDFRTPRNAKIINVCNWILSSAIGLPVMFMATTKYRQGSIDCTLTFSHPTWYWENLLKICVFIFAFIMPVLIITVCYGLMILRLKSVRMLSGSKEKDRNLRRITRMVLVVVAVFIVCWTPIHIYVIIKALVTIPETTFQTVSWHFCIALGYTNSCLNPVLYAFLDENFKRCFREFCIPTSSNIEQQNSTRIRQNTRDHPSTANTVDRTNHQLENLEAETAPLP
Chain of Delta-type opioid receptor (P41143 whole entry): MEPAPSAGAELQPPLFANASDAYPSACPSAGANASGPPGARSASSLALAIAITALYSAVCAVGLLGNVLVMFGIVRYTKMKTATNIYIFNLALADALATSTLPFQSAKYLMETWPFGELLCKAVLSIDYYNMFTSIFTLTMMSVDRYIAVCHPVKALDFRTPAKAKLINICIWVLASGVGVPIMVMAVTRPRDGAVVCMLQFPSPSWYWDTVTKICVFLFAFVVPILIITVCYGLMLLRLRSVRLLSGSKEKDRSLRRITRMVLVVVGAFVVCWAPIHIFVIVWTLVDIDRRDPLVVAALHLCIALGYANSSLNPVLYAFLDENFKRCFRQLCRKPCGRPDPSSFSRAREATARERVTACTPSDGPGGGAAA
Chain of SWI/SNF-related matrix-associated actin-dependent regulator of chromatin subfamily A member 2 (P51531 whole entry): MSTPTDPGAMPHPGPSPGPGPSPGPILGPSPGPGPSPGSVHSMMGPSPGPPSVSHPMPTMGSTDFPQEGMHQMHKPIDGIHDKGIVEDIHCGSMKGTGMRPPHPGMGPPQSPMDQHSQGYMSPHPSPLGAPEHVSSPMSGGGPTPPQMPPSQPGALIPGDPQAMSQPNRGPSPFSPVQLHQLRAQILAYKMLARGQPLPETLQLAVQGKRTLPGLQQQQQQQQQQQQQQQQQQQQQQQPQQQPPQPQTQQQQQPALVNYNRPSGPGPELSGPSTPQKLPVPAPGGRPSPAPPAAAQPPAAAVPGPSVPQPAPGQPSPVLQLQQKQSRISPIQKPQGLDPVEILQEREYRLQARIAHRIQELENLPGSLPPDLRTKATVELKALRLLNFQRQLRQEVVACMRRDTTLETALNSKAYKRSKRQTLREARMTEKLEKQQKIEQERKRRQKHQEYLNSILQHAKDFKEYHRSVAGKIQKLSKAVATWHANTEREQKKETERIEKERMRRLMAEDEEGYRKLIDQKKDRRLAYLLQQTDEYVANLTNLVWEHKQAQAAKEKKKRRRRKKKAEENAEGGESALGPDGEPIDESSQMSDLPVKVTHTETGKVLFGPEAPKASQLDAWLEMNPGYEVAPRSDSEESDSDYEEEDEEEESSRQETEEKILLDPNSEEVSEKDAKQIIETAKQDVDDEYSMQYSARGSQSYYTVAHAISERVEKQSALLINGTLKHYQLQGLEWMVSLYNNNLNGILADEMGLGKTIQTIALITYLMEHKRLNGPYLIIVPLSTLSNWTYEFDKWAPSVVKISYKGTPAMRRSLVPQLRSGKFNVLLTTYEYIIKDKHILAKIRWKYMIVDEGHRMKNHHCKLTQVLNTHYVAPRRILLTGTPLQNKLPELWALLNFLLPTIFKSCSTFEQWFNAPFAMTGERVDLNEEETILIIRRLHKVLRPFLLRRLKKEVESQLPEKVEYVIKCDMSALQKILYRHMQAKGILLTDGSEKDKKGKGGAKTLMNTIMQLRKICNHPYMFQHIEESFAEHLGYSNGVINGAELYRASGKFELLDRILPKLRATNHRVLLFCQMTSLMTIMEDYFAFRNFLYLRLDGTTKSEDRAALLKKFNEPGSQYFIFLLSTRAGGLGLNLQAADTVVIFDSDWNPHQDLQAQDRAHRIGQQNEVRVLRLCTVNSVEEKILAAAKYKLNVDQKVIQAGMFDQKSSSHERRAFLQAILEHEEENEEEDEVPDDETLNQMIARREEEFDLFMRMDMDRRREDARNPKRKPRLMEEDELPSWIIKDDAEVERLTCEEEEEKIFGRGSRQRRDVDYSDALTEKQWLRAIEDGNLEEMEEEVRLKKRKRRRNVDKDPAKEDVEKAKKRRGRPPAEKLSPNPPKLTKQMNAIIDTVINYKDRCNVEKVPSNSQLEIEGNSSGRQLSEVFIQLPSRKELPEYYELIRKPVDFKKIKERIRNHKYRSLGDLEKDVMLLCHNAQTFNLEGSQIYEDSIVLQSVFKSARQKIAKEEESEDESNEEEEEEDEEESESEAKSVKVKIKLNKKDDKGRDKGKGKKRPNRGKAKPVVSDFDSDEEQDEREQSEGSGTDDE
Chain of Potassium channel subfamily K member 9 (Q9NPC2 whole entry): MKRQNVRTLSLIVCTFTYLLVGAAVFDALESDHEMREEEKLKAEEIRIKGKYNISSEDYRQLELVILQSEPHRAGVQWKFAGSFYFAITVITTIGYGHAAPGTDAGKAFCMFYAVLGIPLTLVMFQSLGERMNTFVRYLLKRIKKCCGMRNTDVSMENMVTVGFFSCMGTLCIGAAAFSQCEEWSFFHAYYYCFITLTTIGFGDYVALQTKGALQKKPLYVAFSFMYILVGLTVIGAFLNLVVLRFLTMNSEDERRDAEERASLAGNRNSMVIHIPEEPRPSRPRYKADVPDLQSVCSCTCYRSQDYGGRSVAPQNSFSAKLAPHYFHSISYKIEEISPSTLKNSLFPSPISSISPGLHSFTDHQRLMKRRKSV
Chain of 5-hydroxytryptamine receptor 5A (P47898 whole entry): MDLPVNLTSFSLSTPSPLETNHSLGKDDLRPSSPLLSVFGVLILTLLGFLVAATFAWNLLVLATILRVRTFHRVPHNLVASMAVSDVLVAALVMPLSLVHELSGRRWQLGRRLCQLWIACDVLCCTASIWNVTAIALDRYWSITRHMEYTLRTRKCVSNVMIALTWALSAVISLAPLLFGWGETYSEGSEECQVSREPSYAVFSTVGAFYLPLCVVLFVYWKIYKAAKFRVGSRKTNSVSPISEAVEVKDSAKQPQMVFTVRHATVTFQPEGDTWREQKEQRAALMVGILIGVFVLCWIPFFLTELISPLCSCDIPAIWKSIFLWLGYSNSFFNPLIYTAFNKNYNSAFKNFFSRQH

Take `CCCCN(Cc1ccco1)C(=O)Cn1ncc2c(=O)oc3ccc(C)cc3c21`: in [1], the EC50 is recorded as > 195 µM (not active). The values for the IC50 (in [2]; on Beta-galactosidase) were 53.2 µM (inactive) and > 80 µM (inactive), respectively.
Regarding `O=C(c1cc2cc(Br)ccc2[nH]1)N1CCC2(CC1)OCCO2`, on Beta-galactosidase, the IC50 was > 80 µM (inactive).
As for `Cc1cc(C)c(C#N)c(SCc2n[nH]c3c2C(c2ccc(F)cc2)C(C#N)=C(N)O3)n1` (stereo not drawn), in [3], the concentration at half-maximal activity (AC50) was 6.74 µM (active). Further, the figures for the EC50 on Protein RecA and in “cells [4]” were 11.2 µM (active) and > 29.9 µM (inactive), respectively. Further, the IC50 on Galanin receptor type 3 was > 29.9 µM (inactive).
As for `Cc1ccnc(SCC(=O)Nc2sc3c(c2C#N)CCCC3)n1`, the AC50 was 0.955 µM (active) in experiment [5]; 66.8 µM (active) in experiment [6]; 5 µM (active) in experiment [7]; 1.18 µM (active) in experiment [8]; 11.9 µM (active) in experiment [9]. Further, the IC50 at Galanin receptor type 3 is > 1.11 µM (active). Moreover, in the experiment “cells [4]”, the EC50 is > 29.9 µM (inactive).
Turning to `CN1CCN(Cc2nc3ccccc3c(=O)n2Cc2nc(-c3ccc4ccccc4c3)cs2)CC1`, the EC50 in experiment [10] is > 92.5 µM (inactive); on Mu-type opioid receptor it was > 92.5 µM (inactive); in [11], > 92.5 µM (inactive); in experiment [12], > 91.2 µM (inactive); in experiment [13], > 91.2 µM (inactive). In addition, the AC50 was 11 µM (active) in [5], 8.34 µM (active) in [6] and 11.7 µM (active) in [7].
In the case of `O=C(NCCc1ccccc1)C1CCCN(S(=O)(=O)c2cccc3nsnc23)C1` (stereo not drawn), the values for the IC50 (in “cells [14]”; in [16]) were > 29.9 µM (inactive) and 2.2 µM (active), respectively. The EC50 is 0.669 µM (active) in experiment [15] and > 29.9 µM (inactive) in “cells [17]”.
Regarding `Cc1cccc(C(=O)Nc2cccc(NC(=O)c3ccccc3C(C)C)c2)c1`, in experiment [18], the IC50 was 2.39 µM (active).

For orientation: EC50 means the concentration giving half of the maximal effect. As usually defined, the IC50 is the concentration needed to halve the response being measured. What is called AC50 is the concentration at which the activity in the assay is half-maximal.
